Numbers after ± are expanded uncertainties.

For the series the following is noted: 101.33 kPa, Liquid.

On to `Cc1ccc(C)cc1` [1,4-dimethylbenzene], for which the mass density (usually the mass of a sample divided by its volume) (298.15 K) was determined as 856.62 ± 1.4 kg/m3, the mass density (303.15 K) amounted to 852.25 ± 1.4 kg/m3, the mass density (308.15 K) is recorded as 847.88 ± 1.5 kg/m3 and the mass density (313.15 K) came to 843.64 ± 1.5 kg/m3. Moreover, the speed of sound (commonly how fast a sound wave travels through the sample) reads like this: (298.15 K) 1308 ± 6 m/s; (308.15 K) 1276 ± 6 m/s.
For the molecule `Cc1ccccc1` [toluene], the mass density reads like this: (298.15 K) 862.2 ± 1.4 kg/m3; (303.15 K) 857.55 ± 1.4 kg/m3; (308.15 K) 852.86 ± 1.4 kg/m3; (313.15 K) 848.16 ± 1.5 kg/m3. Besides, the speed of sound was 1304 ± 6 m/s (298.15 K) and 1262 ± 5 m/s (308.15 K).
As to `c1ccccc1` [benzene], the mass density was found to be 873.61 ± 1.3 kg/m3 (298.15 K), 868.29 ± 1.3 kg/m3 (303.15 K), 862.96 ± 1.4 kg/m3 (308.15 K) and 857.97 ± 1.4 kg/m3 (313.15 K). The speed of sound was 1299 ± 6 m/s (298.15 K) and 1260 ± 5 m/s (308.15 K).
For the molecule `CCCCOCCO` [2-butoxyethan-1-ol], the mass density reads like this: (298.15 K) 896.25 ± 1.2 kg/m3; (303.15 K) 892.03 ± 1.2 kg/m3; (308.15 K) 888.91 ± 1.2 kg/m3; (313.15 K) 883.4 ± 1.2 kg/m3. The speed of sound (298.15 K) amounted to 1304 ± 6 m/s and the speed of sound (308.15 K) is 1285 ± 6 m/s.
For `C=C(C)C(=O)OC` [methyl methacrylate], the mass density is reported as 937.63 ± 0.92 kg/m3 (298.15 K), 931.74 ± 0.96 kg/m3 (303.15 K), 925.74 ± 1 kg/m3 (308.15 K) and 920.26 ± 1 kg/m3 (313.15 K). The speed of sound turned out to be 1181 ± 5 m/s (298.15 K) and 1153 ± 5 m/s (308.15 K).

The values above are taken from the NIST ThermoML archive (doi:10.1021/je034022n).
